Test results published in EP4516281A1, “COSMETIC COMPOSITIONS” (The Boots Company plc, priority 2023, dated 2025).

System: mushroom tyrosinase
Assay: Tyrosinase inhibition screening (L-DOPA oxidation, absorbance at 470 nm)
Format: biochemical
Settings: Concentration 0.1%; single compounds
From the text: The tyrosinase inhibition may be used to determine the tyrosinase inhibition ability of the compounds. The test comprises adding the test compound to a solution of L-dihydroxyphenylalanine (L-(DOPA)) and mushroom tyrosinase. L-(DOPA) is converted to […] by the mushroom tyrosinase, causing a brown colour to form. Inhibition of this reaction prevents the brown colour formation. The lighter the colour at the end of the reaction, the stronger is the inhibitory effect of the active. Absorbance data may be collected using a plate reacted set up to have a kinetic read every 1 minute for 30 minutes, where absorbance is read at 470 nm.

Compound	Tyrosinase Inhibition (%)
C=C(C)[C@@H]1CCC(C)=C[C@H]1c1c(O)cc(CCCCC)cc1O [F, Cannabidiol isolate (CBD)]	9.134
O=C(O)C(O)c1ccccc1 (stereo not shown) [C, Mandelic acid]	80.279
CCCCCCCCCCCCCCC[C@@H](O)[C@@H](N)CO [G, Sphinganine]	-5.78
Feruloyl oligopeptide-33	41.765
